The source made the active and inactive calls.
Columns and labels:
Format in all cases: functional
[1] = target: T1, Sentrin-specific protease 7 (Homo sapiens, UniProt Q9BQF6);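 further: Luminescence-based dose-response confirmation of ultra-high-throughput screening hits, measuring inhibition of SENP7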
T1 sequence (Q9BQF6 whole entry): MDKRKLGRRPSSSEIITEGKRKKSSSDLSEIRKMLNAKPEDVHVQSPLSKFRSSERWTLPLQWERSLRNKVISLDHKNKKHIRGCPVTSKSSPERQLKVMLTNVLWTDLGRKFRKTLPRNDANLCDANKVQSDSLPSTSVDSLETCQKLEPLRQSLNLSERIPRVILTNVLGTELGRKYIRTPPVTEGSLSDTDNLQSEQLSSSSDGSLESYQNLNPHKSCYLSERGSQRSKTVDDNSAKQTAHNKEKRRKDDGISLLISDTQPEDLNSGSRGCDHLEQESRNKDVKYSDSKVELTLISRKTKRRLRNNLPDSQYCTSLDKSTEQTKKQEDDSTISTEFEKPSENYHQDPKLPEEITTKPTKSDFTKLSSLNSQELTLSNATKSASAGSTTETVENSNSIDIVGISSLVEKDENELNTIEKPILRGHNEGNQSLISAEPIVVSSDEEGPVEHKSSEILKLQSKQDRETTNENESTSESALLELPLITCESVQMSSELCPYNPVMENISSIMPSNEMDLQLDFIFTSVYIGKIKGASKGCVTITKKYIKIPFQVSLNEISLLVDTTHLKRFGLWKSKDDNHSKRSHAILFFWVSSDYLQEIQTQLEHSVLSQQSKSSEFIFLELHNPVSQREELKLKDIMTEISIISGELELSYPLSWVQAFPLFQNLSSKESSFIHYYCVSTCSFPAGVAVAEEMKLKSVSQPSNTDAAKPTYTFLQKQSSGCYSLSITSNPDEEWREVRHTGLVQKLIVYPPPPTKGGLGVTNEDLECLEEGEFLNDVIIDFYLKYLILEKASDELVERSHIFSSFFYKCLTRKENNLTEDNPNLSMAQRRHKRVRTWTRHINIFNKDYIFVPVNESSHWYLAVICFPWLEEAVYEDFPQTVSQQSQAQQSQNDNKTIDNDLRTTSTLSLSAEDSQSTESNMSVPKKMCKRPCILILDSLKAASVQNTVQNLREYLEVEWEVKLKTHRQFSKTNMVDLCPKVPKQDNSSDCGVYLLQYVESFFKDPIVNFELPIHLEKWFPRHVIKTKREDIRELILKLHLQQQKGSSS

[2] = target: T2, Replicative DNA helicase DnaB (Mycobacterium tuberculosis, UniProt P9WMR3); assay: DnaB intein splicing inhibitors, dose response, biochemical, cell-free fluorescence (AID 449749)
T2 sequence (P9WMR3 whole entry): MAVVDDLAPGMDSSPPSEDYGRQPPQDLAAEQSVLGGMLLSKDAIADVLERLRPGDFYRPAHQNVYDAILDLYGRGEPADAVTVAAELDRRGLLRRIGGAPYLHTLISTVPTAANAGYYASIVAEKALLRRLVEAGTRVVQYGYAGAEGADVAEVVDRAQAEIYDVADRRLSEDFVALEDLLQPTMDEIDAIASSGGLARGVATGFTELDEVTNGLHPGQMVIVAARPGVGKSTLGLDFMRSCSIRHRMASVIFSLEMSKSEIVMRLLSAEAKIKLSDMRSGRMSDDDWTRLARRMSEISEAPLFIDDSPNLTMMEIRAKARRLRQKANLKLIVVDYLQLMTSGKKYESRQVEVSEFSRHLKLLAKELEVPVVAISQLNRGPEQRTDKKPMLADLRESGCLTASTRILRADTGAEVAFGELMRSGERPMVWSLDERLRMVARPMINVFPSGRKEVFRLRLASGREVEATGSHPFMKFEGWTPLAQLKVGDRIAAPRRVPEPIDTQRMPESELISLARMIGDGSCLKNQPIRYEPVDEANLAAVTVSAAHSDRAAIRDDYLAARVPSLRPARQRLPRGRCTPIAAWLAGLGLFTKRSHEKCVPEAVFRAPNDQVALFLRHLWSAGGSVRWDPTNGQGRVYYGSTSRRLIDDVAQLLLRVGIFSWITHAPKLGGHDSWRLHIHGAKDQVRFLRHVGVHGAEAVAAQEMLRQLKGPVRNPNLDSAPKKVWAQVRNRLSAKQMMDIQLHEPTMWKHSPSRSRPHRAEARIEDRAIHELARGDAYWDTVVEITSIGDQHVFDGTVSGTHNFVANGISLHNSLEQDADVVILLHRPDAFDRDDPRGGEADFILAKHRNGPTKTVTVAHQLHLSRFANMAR

Protein RecA = target: T3, Protein RecA (Mycobacterium tuberculosis, UniProt P9WHJ3); assay: Fluorescence Cell-Free Homogeneous Dose Retest to Identify Inhibitors of RecA-Intein Splicing Activity. [Related pubchem assays (depositor defined):AID2097, AID2223, AID489010, AID492950]
T3 sequence (P9WHJ3 whole entry): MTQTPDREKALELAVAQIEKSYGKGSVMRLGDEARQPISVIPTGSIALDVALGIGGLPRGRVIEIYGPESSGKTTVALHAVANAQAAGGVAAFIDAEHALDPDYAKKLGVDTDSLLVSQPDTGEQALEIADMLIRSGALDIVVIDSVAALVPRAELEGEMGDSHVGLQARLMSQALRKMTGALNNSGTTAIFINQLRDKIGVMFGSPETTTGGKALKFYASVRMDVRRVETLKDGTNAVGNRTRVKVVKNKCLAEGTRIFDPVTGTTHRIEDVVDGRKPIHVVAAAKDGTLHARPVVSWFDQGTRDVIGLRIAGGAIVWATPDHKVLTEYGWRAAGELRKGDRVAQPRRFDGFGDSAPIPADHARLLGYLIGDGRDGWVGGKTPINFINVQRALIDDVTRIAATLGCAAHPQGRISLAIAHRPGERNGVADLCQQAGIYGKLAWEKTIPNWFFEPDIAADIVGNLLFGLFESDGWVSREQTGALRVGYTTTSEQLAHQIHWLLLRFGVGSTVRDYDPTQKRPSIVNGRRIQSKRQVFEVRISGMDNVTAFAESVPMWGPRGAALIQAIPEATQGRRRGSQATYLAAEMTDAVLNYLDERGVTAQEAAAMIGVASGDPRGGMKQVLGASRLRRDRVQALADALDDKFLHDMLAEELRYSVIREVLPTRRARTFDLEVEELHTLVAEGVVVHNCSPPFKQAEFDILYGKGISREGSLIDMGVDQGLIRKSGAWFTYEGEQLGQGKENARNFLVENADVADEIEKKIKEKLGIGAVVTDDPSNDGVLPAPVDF

[3] = target: Dual specificity protein kinase CLK2 (Homo sapiens, UniProt P49760)
Sequence of Dual specificity protein kinase CLK2 (P49760 whole entry): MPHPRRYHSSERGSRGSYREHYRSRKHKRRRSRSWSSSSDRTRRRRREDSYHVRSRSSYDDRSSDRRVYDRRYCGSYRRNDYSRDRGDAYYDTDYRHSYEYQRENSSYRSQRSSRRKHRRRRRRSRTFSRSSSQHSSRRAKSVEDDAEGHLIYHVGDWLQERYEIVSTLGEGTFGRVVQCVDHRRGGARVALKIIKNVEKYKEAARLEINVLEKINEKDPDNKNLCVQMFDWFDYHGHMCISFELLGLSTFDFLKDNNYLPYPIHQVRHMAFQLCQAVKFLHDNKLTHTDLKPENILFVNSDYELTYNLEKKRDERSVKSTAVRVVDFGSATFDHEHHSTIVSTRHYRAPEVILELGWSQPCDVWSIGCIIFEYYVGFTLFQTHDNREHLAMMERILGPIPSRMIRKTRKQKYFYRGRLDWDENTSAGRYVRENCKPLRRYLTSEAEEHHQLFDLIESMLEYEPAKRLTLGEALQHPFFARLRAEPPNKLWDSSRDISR

[4] = target: Death-associated protein kinase 3 (Homo sapiens, UniProt O43293);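 further: measured as one member of a kinome-wide profiling panel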
Sequence of Death-associated protein kinase 3 (O43293 whole entry): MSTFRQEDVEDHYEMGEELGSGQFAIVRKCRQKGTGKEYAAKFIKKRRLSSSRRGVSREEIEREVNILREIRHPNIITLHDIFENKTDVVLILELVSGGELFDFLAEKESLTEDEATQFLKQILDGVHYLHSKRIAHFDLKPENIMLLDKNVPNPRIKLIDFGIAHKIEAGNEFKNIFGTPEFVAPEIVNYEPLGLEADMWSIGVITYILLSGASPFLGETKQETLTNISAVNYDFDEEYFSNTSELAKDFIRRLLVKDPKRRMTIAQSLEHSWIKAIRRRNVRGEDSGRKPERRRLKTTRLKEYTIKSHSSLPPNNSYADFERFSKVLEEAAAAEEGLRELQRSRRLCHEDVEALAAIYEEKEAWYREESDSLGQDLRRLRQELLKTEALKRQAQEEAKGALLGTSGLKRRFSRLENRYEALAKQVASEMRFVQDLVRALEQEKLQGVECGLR

[5] = target: Tyrosine-protein kinase BTK (Homo sapiens, UniProt Q06187)
Sequence of Tyrosine-protein kinase BTK (Q06187 whole entry): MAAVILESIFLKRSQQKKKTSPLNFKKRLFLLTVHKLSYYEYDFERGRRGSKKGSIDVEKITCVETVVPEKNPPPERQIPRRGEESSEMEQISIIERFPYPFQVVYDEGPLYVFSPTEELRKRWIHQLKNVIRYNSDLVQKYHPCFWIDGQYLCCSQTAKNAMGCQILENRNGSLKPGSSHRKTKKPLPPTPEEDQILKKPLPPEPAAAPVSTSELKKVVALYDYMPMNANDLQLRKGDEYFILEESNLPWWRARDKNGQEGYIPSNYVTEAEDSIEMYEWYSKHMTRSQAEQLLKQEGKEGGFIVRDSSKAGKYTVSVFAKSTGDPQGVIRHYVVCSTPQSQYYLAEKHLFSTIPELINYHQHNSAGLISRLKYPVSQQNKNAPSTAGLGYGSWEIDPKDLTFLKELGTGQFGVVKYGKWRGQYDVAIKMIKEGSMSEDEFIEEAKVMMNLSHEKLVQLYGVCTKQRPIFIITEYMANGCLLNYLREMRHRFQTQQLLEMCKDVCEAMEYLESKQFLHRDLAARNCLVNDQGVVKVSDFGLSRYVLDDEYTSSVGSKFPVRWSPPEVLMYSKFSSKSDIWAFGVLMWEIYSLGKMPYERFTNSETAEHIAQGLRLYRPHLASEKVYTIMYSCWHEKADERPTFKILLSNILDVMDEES

[6] = target: Mitogen-activated protein kinase 9 (Homo sapiens, UniProt P45984);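 further: value from a kinome panel profiling assay, MAPK9 panel entry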
Sequence of Mitogen-activated protein kinase 9 (P45984 whole entry): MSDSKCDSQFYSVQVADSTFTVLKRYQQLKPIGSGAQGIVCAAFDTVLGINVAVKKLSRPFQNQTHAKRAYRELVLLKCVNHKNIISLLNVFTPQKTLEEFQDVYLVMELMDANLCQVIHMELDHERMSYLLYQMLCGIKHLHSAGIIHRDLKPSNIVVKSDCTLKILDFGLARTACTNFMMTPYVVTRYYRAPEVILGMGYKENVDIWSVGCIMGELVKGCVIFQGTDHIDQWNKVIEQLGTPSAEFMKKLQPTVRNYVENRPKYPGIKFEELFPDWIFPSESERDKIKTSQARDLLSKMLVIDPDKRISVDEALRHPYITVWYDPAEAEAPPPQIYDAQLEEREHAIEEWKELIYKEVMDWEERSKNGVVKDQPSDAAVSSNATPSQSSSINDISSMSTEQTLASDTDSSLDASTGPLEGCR

[7] = target: Hepatocyte growth factor receptor (Homo sapiens, UniProt P08581);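 further: kinase panel profiling across the kinome, with MET as the panel member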
Sequence of Hepatocyte growth factor receptor (P08581 whole entry): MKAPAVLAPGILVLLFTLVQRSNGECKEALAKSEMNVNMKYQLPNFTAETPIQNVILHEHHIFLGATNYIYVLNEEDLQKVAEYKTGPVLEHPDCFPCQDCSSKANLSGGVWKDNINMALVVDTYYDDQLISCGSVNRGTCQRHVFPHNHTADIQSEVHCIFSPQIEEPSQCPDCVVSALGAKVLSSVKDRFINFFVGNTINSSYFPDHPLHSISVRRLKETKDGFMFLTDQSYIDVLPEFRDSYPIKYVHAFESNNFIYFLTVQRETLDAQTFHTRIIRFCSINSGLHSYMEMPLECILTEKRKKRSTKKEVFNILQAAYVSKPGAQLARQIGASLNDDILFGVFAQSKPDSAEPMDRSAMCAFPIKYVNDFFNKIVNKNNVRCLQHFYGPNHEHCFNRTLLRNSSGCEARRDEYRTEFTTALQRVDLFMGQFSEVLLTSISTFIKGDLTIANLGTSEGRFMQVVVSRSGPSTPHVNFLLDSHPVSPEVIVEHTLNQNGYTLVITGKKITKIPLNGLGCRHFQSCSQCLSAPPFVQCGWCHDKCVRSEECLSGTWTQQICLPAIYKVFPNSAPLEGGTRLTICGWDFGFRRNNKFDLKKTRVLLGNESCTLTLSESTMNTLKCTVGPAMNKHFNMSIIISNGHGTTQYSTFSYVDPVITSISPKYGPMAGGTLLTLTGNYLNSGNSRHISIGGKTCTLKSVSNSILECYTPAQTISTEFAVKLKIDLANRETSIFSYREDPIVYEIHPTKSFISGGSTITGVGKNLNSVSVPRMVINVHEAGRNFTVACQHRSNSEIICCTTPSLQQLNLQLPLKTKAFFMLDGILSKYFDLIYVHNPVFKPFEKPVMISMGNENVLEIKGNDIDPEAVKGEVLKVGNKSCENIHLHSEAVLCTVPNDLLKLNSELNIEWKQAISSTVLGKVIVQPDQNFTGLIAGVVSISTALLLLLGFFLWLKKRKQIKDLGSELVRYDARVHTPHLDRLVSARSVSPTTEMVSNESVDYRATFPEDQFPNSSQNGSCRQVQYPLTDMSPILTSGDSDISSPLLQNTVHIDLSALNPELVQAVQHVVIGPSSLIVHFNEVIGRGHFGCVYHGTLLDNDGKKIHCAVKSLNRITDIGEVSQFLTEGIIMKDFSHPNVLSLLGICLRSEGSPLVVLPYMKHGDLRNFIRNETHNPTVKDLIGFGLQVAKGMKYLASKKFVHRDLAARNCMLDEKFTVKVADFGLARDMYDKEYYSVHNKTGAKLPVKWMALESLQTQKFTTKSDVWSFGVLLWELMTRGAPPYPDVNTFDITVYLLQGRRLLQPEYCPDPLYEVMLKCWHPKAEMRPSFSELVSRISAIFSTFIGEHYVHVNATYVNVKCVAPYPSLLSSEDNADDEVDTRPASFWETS

SMILES | IC50 [1] | AC50 [2] | EC50 (Protein RecA) | Ki [3] | Ki [4] | Ki [5] | Ki [6] | Ki [7]
Cc1cc(C)c[n+](C2=C([N-]S(=O)(=O)c3cccs3)C(=O)c3ccccc3C2=O)c1 | 41200 nM (active) | – | – | – | – | – | – | –
CCCCCCCCCCC[N+](C)(C)CC/C=C1/c2ccccc2Sc2ccc(Cl)cc21 | – | > 380000 nM (inactive) | 10100 nM (active) | – | – | – | – | –
CCn1c(-c2nonc2N)nc2cncc(C(=O)N3CCC(N)C3)c21 (stereo unspecified) | – | – | – | 1000 nM (active) | 79.4 nM (active) | > 6310 nM (inactive) | > 3980 nM (inactive) | > 2510 nM (inactive)
Cc1[nH]nc2ccc(-c3cncc(OCC(N)Cc4c[nH]c5ccccc45)c3)cc12 (stereo unspecified) | – | – | – | 3.16 nM (active) | 100 nM (active) | > 1260 nM (inactive) | 2000 nM (active) | > 3160 nM (inactive)
COC(=O)c1ccccc1NC1=C/C(=N\S(=O)(=O)c2cccs2)c2ccccc2C1=O | 32300 nM (active) | > 380000 nM (inconclusive) | 20.8 nM (inconclusive) | – | – | – | – | –

Reference: ChEMBL document CHEMBL1201862, “PubChem BioAssay data set” (2004)
